Where two headings read alike, the source gives them in different places. No end group written: not given here.
Legend:
Assay type in all cases: cell-based, Human
[1] = in vitro; conditions: human
Method: (§1) Experimental design: The experimental design (see FIG. 1) was to seed the HCC38 breast cancer cell line (BCCL) with the p1978 pep-tide in order to determine the effects of the peptide on cell growth. The HCC38 cell line was chosen because of its triple negative receptor status. […] They are more likely to recur than other subtypes of breast cancer.
(§2) The 184B5 (normal breast tissue cells) were seeded to serve as a negative control while the AU565 BCCL, a cell line with a positive Her2/neu and p53 receptor status, was inoculated to serve as a positive control. In the initial phase, treatment cell lines were treated with 8.26 μg/ml of p1978. The con-centration corresponds closely to the average SMR3B (the parent protein of the p1978 peptide), concentration, plus one standard deviation found in healthy breast tissues. A second experiment was performed doubling the concentration of 1978 to 16.52 μg/ml. FIG. 1 represents a schematic of the design used for the study.
(§3) Corresponding unseeded cell lines served as controls. The controls were treated with a placebo containing 1.0 ml of sterile PBS (for cell culture). An expanded dose-response experiment was not performed due to limited resources. The experiment ended 48 hours after seeding. The outcome variables of this study were total cell count, live cell count and percent viability.
(§4) Cell lines: Human breast cell lines HCC38 (HCC38 BL (ATCC® CRL-2346™), AU565 (ATCC® CRL2351™) and 184B5 (ATCC® CRL-8799™) were purchased from the American Type Culture Collection. Cell line descriptions are summarized in Table 1.
(§5) Cell growth procedures: The aforementioned cell lines were thawed in a 37.0 water bath with gentle agitation. The vials were decontaminated and the cells were added drop wise to 9 ml of their prospective culture media while gently mixing. The cell suspension was centrifuged at 1,000 rpm for five minutes. The supernatant was carefully removed and the cell pellet was resuspended in 5.0 ml of media. Each cell line was checked for viability using a hemocytometer and a cell count/ml was calculated. Nine plates were seeded of each cell line at a total of 1.0×10^6 cells/100 mm plates. Once the plates reached 30% confluency, nine plates of each cell line were treated with 8.26 μg/ml (4.95 μM) of p1978 peptide and a set of nine control plates were treated with 1.0 ml of phosphate buffered saline (PBS). They were incubated and harvested by trypsinization in 48 hours. The cells from each plate were counted for the total number of cells and were assessed for viability using the trypan blue exclusion test of cell viability. The same procedures were repeated for the higher 16.52 ug/ml (9.88 uM) dose.
(§6) Statistics: Data was tabulated using SPSS statistical software. The outcome variables of this study were total cell count, live cell count and percent viability. To assess these variables, descriptive statistics were employed to compare p1978 treated cells relative to the control cells. The approach consisted mainly of bar charts, mean cell counts and mean percentages. The cellular growth rate was determined by subtracting the resultant or final cell count from its baseline value. The difference was divided by 48 hours the growing time for the cells. The results were expressed in cells/hour.
(§7) A homoscedastic univariate t-test was computed for differences between the treated and the control groups. The arithmetic mean value of the control group was used as the “cut-point” value. The alpha level was p<0.05.

[2] = tested on: 184B5 cell line (normal breast tissue cells); experiment: in vitro
Method: as §1, §2, §3, §4, §5, §6, §7

[3] = tested on: HCC38 breast cancer cell line (triple negative); experiment: Cell growth: total and live cell count, trypan blue exclusion viability, 48 hours after seeding with p1978; parameters: key to Total growth rate, Treated / Live growth rate, Treated: N.G. = Negative Growth
Method: as §1, §2, §3, §4, §5, §6, §7

[4] = tested on: AU565 breast cancer cell line (Her2/neu and p53 positive)
Method: as §1, §2, §3, §4, §5, §6, §7

[5] = 184B5, 8.26 ug/ml p1978, 48 hours
[6] = 184B5, 8.26 μg/ml p1978, over 48 hours
[7] = 184B5, 16.52 ug/ml p1978, 48 hours
[8] = 184B5, 16.52 μg/ml p1978, 48 hours
[9] = 184B5, 16.52 μg/ml p1978, over 48 hours
[10] = HCC38, 8.26 μg/ml p1978, over 48 hours
[11] = HCC38, 16.52 μg/ml p1978, 48 hours
[12] = HCC38, 16.52 μg/ml p1978, over 48 hours
[13] = AU565, 8.26 ug/ml p1978, 48 hours
[14] = AU565, 8.26 μg/ml p1978, over 48 hours
[15] = AU565, 16.52 μg/ml p1978, 48 hours
[16] = AU565, 16.52 μg/ml p1978, 48 hours, footnote: * represents 10^5
[17] = AU565, 16.52 μg/ml p1978, over 48 hours

PRGPYPPGPLAPPQ [p1978, PRGPYPPGPLAPPQ]
viability at 48 hours, 8.26 μg/ml [1]: 91%
viability at 48 hours, 16.52 μg/ml [1]: 95 to 98%
difference in growth rate between the treated and the controls ([2]; 184B5, 8.26 ug/ml p1978): almost negligible difference
higher living cell count for the treated cells as compared to the control [2, 5]: 3.5%
higher total cell count for the treated cells as compared to the control [2, 5]: 7.5%
Live growth rate, Treated [2, 6]: 0.59 10^4 cells/hour
Total growth rate, Treated [2, 6]: 1.11 10^4 cells/hour
effect on cell viability or growth rate ([2]; 184B5, 16.52 ug/ml p1978): no effect
increase in the living cell count for the treated cells as compared to the control [2, 7]: 63.7%
increase in the total cell count for the treated cells as compared to the control [2, 7]: 22.4%
% Live, Treated [2, 8]: 98%
Live × 10^6 (mean cell count with standard deviation), Treated [2, 8]: 4.82 (±0.75) × 10^6
Live × 10^6, Treated - Baseline [2, 8]: 2.57 × 10^6
Live × 10^6, Treated - Control [2, 8]: 1.00 × 10^6
Total × 10^6 (mean cell count with standard deviation), Treated [2, 8]: 4.91 (±0.63) × 10^6
Total × 10^6, Treated - Baseline [2, 8]: 2.62 × 10^6
Total × 10^6, Treated - Control [2, 8]: 0.90 × 10^6
Live growth rate, Treated [2, 9]: 2.77 10^4 cells/hour
Total growth rate, Treated [2, 9]: 7.83 10^4 cells/hour
reduction of total cell count versus control ([3]; HCC38, 8.26 ug/ml p1978, 48 hours): 20.8%
reduction of living cell count versus control ([3]; HCC38, 8.26 ug/ml p1978, 48 hours, t=−3.25, p 0.08): 33.2%
Live growth rate, Treated [3, 10]: N.G.
Total growth rate, Treated [3, 10]: N.G.
growth rate difference, treated versus control ([3]; HCC38, 16.52 ug/ml p1978): −38%
average total number of cells higher in control than in treated (knockdown effect) ([3]; HCC38, 16.52 ug/ml p1978, 48 hours): 22.4%
% Live, Treated [3, 11]: 92%
Live × 10^6 (mean cell count with standard deviation), Treated [3, 11]: 1.87 (±0.43) × 10^6
Live × 10^6, Treated - Baseline [3, 11]: 1.10 × 10^6
Live × 10^6, Treated - Control [3, 11]: −0.67 × 10^6
Total × 10^6 (mean cell count with standard deviation), Treated [3, 11]: 2.03 (±0.62) × 10^6
Total × 10^6, Treated - Baseline [3, 11]: 1.03 × 10^6
Total × 10^6, Treated - Control [3, 11]: −0.61 × 10^6
decrease in the number of living cells as compared to the control ([3]; HCC38, 16.52 ug/ml p1978, 48 hours, t=−3.08, p<0.05): 37.9%
Live growth rate, Treated [3, 12]: 2.29 10^4 cells/hour
Total growth rate, Treated [3, 12]: 2.16 10^4 cells/hour
live cell count higher than control group [4, 13]: 11.7%
total cell count higher than control group [4, 13]: 31.5%
Live growth rate, Treated [4, 14]: 0.77 10^4 cells/hour
Total growth rate, Treated [4, 14]: 1.38 10^4 cells/hour
knockdown effect on cell count ([4]; AU565, 16.52 ug/ml p1978): No knockdown effect
increase in living cell count ([4]; AU565, 16.52 ug/ml p1978, 48 hours): 23.1%
% Live, Treated [4, 15]: 75%
Live × 10^6 (mean cell count with standard deviation), Treated [4, 15]: 1.60 (±0.42) × 10^6
Live × 10^6, Treated - Control [4, 15]: 0.30 × 10^6
Total × 10^6 (mean cell count with standard deviation), Treated [4, 15]: 2.14 (±0.50) × 10^6
Total × 10^6, Treated - Control [4, 15]: 0.27 × 10^6
Live, Treated - Baseline [4, 16]: 0.24* 10^5
Total, Treated - Baseline [4, 16]: 0.24* 10^5
Live growth rate, Treated [4, 17]: 0.50 10^4 cells/hour
Total growth rate, Treated [4, 17]: 0.50 10^4 cells/hour
percent viability, treated ([4]; human, 48 hours, 8.26 ug/ml): 61%

Source: US11078256B2, “Methods and compositions for inhibiting cancer cell growth” (THE BOARD OF REGENTS OF THE UNIVERSITY OF TEXAS SYSTEM, priority 2018, dated 2021)
